Experimental data taken from publication PMC8899516, “Structure-Activity Relationship Studies of 4-((4-(2-fluorophenyl)piperazin-1-yl)methyl)-6-imino-N-(naphthalen-2-yl)-1,3,5-triazin-2-amine (FPMINT) Analogues as Inhibitors of Human Equilibrative Nucleoside Transporters” (Frontiers in Pharmacology, 2022).

Biological target: T1, ENT2 (Homo sapiens, UniProt Q14542)
T1 construct: expressed in transfected cells
T1 sequence (Q14542 1-456): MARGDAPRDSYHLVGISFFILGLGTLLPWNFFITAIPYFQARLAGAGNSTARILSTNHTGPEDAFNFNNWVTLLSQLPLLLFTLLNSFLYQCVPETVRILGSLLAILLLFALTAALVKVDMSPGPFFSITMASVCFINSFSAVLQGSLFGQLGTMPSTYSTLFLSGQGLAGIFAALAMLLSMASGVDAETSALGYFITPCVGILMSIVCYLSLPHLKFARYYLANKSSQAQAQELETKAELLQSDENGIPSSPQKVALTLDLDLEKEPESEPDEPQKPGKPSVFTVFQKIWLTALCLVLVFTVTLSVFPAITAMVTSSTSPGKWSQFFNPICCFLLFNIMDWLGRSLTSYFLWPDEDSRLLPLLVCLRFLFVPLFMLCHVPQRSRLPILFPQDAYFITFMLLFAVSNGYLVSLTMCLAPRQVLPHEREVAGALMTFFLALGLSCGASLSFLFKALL
Assay: Kinetic study of [3H]uridine uptake in PK15NTD/ENT2 cells
Assay type: cell-based
Protocol: Nucleoside transporter-deficient porcine kidney fibroblast cells (PK15NTD) stably transfected with cloned human ENT1 or ENT2 ([Ward et al., 2000]) were used as the in vitro models. The cells were cultured in Dulbecco’s Modified Eagle’s Medium (DMEM) supplemented with 10% (v/v) foetal bovine serum, 0.5 mg/ml geneticin, 100 units/ml penicillin, 100 μg/ml streptomycin and 0.25 μg/ml of amphotericin B at 37°C in 5% CO2/95% air.
Confluent monolayers of PK15NTD/ENT1 and PK15NTD/ENT2 cells in 24-well plates were washed thrice with HEPES-buffered Ringer’s solution containing (mM): 135 NaCl, 10 glucose, 5 KCl, 5 HEPES, 3.33 NaH2PO4, 1.0 CaCl2, 1.0 MgCl2, 0.83 Na2HPO4; pH 7.4. The cells were incubated with different concentrations of FPMINT analogues (from 10 nM to 100 μM) containing [^3H]uridine (2 μCi/ml, 1 μM) for 1 min. Passive uridine uptake was determined by incubating the cells in HEPES-buffered Ringer’s solution containing [^3H]uridine in the presence of 0.5 mM NBMPR. The cells were rapidly washed five times with ice-cold phosphate-buffered saline (PBS). After air-drying, the cells were solubilised by overnight incubation in 500 μl of 5% Triton-X100. Next, 300 μl of the cell lysates were mixed with 2 ml of scintillation liquid. The radioactivity of each sample was quantified by a scintillation counter. The protein content in each well was determined spectrophotometrically using a commercial bicinchoninic acid assay (Pierce Biochemicals, Rockford, IL). Uptake values were expressed as picomoles of [^3H]uridine per milligram of cellular protein per minute.
All data were analysed by GraphPad Prism software (San Diego, CA, United States). Data are expressed as mean ± standard error (SE) of three experiments performed in triplicate. The IC50 values were determined from the dose-response curves fitted with a logistic function. For the kinetic study of [^3H]uridine uptake, apparent K m and V max values were determined from the Michaelis-Menten equation, and K i was determined from the X-intercept of linear regression. Analysis of variance and Student’s t-test were performed for multiple and paired variables, respectively. p values of <0.05 were considered to be statistically significant.
Compound 3c was selected for further investigation. The kinetic study of [^3H]uridine transport was performed by measuring the concentration-dependent uptake of [^3H]uridine. This study could provide clue about the mode of action of compound 3c. The uptake of [^3H]uridine by ENT1 and ENT2 was saturable and conformed to Michaelis-Menten kinetics. Compound 3c decreased the V max of ENT1 but had no effect on K m . […] The slopes of the linear 1/V versus 1/[S] plots increased with the concentration of compound 3c (Figure 4B).
FIGURE 4 Competitive inhibition of ENT1 and ENT2 by compound 3c. Kinetic study of [^3H]uridine uptake (0.1 μM–1 mM) was measured in (A) PK15NTD/ENT1 and (D) PK15NTD/ENT2 cells in the presence of various concentrations of compound 3c (0, 0.01, 0.1, 1 and 10 µM) (B,E) 1/V versus 1/[S] plots of each curve in (A) and (D), respectively (C,F) The plot of slopes of each line in (B) and (E), respectively, versus the concentration of compound 3c. Data are presented as mean ± SE of three experiments.

Cc1cccc(Nc2nc(N)nc(CN3CCN(c4ccc(F)cc4)CC3)n2)c1 [Compound 3c]
apparent Vmax of ENT2 (0.01 µM compound 3c): 1775 ± 76.83 pmol/mg protein/min | apparent Vmax of ENT2 (0.1 µM compound 3c): 1295 ± 78.09 pmol/mg protein/min | apparent Vmax of ENT2 (1 µM compound 3c): 918.6 ± 47.48 pmol/mg protein/min | apparent Vmax of ENT2 (10 µM compound 3c): 534.6 ± 28.21 pmol/mg protein/min | mode of inhibition of ENT2-mediated uridine transport (decreased Vmax, apparent Km unchanged): non-competitive inhibitor | Ki (x-intercept of slopes versus concentration plot): 540 nM
